From patent publication US7531695B2, “Therapeutic agents for the treatment of cancer, metabolic diseases and skin disorders” (Auspex Pharmaceutical, Inc, priority 2004, dated 2009) come the findings set out here.

One test deals with A375 cells. The test can be described thus: A375 Tumor Cell Proliferation Assay. It counts as cell-based. The settings on record: Homo sapiens, A-375, read-out: LC50 (50% Lethal Concentration). How it is done: (§1) A375 cells (5,000 per well in 90% RPMI-1640 plus 10% Fetal Bovine Serum [FBS]) were pre-incubated in a black clear bottom 96-well plate in an atmosphere of 5% CO2 at 37° C. for 24 hours. Stock solutions of compounds in DMSO were diluted using a buffer and dilutions were added to each well. […] The final assay pH was 7.4. The cells were incubated in RPMI-1640 with each compound for an additional 72 to 168 hours. Alamar Blue was added and the plate was incubated for an additional 12 hours. Fluorescence intensity was measured using a Gemini plate reader with excitation at 530 nm and emission at 590 nm. A decrease of 50 percent or more (≧50%) in fluorescence intensity relative to vehicle treated controls is an indication of significant anti-cancer activity.

Test [1] relates to human head and neck squamous cell carcinoma cells (SCC 103). The experiment in a line: SCC103 Tumor Cell Proliferation Assay. It counts as cell-based. The following applies: SCC 103 cells; compared to Bexarotene; FIG. 1. How it is done:
as §1, with “SCC 103” for “A375”, “(15,000” for “(5,000”, “EMEM medium” for “RPMI-1640”, “EMEM medium” for “RPMI-1640 with each compound”, “72” for “72 to 168”, “Blue (10% of culture volume)” for “Blue”

Where a name gives a salt, the structure may show the parent alone.

For the compound `COc1cccc2c1C(=O)c1c(O)c3c(c(O)c1C2=O)C[C@@](O)(C(=O)CO)C[C@@H]3O[C@H]1C[C@H](N)[C@H](O)[C@H](C)O1` [Doxorubicin], the CC50 with A375 cells was 8 µM.

For `C=C(c1ccc(C2=C(O)CCCC2=O)cc1)c1cc2c(cc1C)C(C)(C)CCC2(C)C` [Example 5, 5-3-Hydroxy-2-{4-[1-(3,5,5,8,8-pentamethyl-5,6,7,8-tetrahydro-naphthalen-2-yl)-vinyl]-phenyl}-cyclohex-2-enone], in test [1], the growth inhibitory effect entry is given as “enhanced activity”.

Regarding `Cc1cc2c(cc1C(=O)c1ccc(C3=C(O)CCCC3=O)cc1)C(C)(C)CCC2(C)C` [Example 8, 3-Hydroxy-2-[4(3,5,5,8,8-pentamethyl-5,6,7,8-tetrahydronaphthalene-2-carbonyl)-phenyl]-cyclohex-2-enone potassium salt], the growth inhibitory effect entry in test [1] was “enhanced activity”.
